Each structure is given as a SMILES string.

This experiment deals with mesenteric artery. In words: Relaxation of mesenteric artery (helical strips contracted with KCl, organ bath). Also noted: species or system rabbit (home bred, Japanese species). Particulars: Oryctolagus cuniculus; concentration for 50% relaxation; KCl 15~20 mM contraction; read-out: Relaxation of Mesenteric Artery ED50. The method, then: After a home bred rabbit of a Japanese species weighing about 3 Kg was subjected to bloodletting, resulting in death and then to abdominal incision, the mesenteric artery was taken out, cut into helicoids of 2 mm×25 mm and suspended in a 20 ml organ bath filled with a Krebs-Henseleit solution into which a mixed gas of 95% by volume of O2 and 5% by volume of CO2 was introduced and one end of the artery was connected with an isometric transducer. When a load of 1.5 g was applied to the artery, the contraction and the relaxation of the artery were recorded as a weight on the transducer (a product of Nippon Koden K.K., Japan, "FD Pickup TB-912T"). The relaxation of the mesenteric artery was observed by adding the isoquinolinesulfonyl derivatives and their pharmaceutically acceptable acid addition salts of this invention to the mesenteric artery at the condition of about one half of the maximum contraction with KCl at a KCl concentration of 15~20 mM. When the complete relaxation of the mesenteric artery was designated 100%, the concentration of the isoquinolinesulfonyl derivatives and their pharmaceutically acceptable acid addition salts which brought about a relaxation of 50% is shown in Table 12.
As for `NCCCNS(=O)(=O)c1cccc2cnccc12` [Compound (2), N-(3-aminopropyl)-5-isoquinolinesulfonamide], the EC50 was found to be 7 µM.
Under `NCCCCNS(=O)(=O)c1cccc2cnccc12` [Compound (3), N-(4-aminobutyl)-5-isoquinolinesulfonamide] stands 11 µM; under `NCCCCCCNS(=O)(=O)c1cccc2cnccc12` [Compound (4), N-(6-aminohexyl)-5-isoquinolinesulfonamide], 10 µM; under `NCCCCCCCCCCNS(=O)(=O)c1cccc2cnccc12` [Compound (5), N-(10-aminodecyl)-5-isoquinolinesulfonamide], 14 µM.
For `CC(CN)NS(=O)(=O)c1cccc2cnccc12` (stereo not drawn) [Compound (6), N-(2-amino-1-methylethyl)-5-isoquinolinesulfonamide], the EC50 was 10 µM.
For the compound `CCC(CN)NS(=O)(=O)c1cccc2cnccc12` (stereo not drawn) [Compound (7), N-(1-aminomethylpropyl)-5-isoquinolinesulfonamide], the EC50 is 21 µM.
For `CCCCC(CN)NS(=O)(=O)c1cccc2cnccc12` (stereo not drawn) [Compound (8), N-(1-aminomethylpentyl)-5-isoquinolinesulfonamide], the EC50 is 19 µM.
Regarding `CC(N)CNS(=O)(=O)c1cccc2cnccc12` (stereo not drawn) [Compound (9), N-(2-aminopropyl)-5-isoquinolinesulfonamide], the EC50 worked out at 15 µM.
Under `CC(C)C(N)CNS(=O)(=O)c1cccc2cnccc12` (stereo not drawn) [Compound (11), N-(2-amino-3-methylbutyl)-5-isoquinolinesulfonamide] stands 28 µM; under `NCC(NS(=O)(=O)c1cccc2cnccc12)c1ccccc1` (stereo not drawn) [Compound (12), N-(2-amino-1-phenylethyl)-5-isoquinolinesulfonamide], 18 µM; under `NC(CNS(=O)(=O)c1cccc2cnccc12)c1ccccc1` (stereo not drawn) [Compound (13), N-(2-amino-2-phenylethyl)-5-isoquinolinesulfonamide], 25 µM.
With `CNCCNS(=O)(=O)c1cccc2cnccc12` [Compound (14), N-(2-methylaminoethyl)-5-isoquinolinesulfonamide], the EC50 is 12 µM.
Under `CC(C)NCCNS(=O)(=O)c1cccc2cnccc12` [Compound (16), N-(2-isopropylaminoethyl)-5-isoquinolinesulfonamide] stands 10 µM; under `CN(C)CCCNS(=O)(=O)c1cccc2cnccc12` [Compound (17), N-(3-dimethylaminopropyl)-5-isoquinolinesulfonamide], 10 µM.
As to `CCN(CC)CCCNS(=O)(=O)c1cccc2cnccc12` [Compound (18), N-(3-diethylaminopropyl)-5-isoquinolinesulfonamide], the EC50 was 30 µM.
For `CCCCN(CCCC)CCCNS(=O)(=O)c1cccc2cnccc12` [Compound (19), N-(3-di-n-butylaminopropyl)-5-isoquinolinesulfonamide] the value was 17 µM.
Under `O=S(=O)(NCCCN1CCCCC1)c1cccc2cnccc12` [Compound (20), N-(3-piperidinopropyl)-5-isoquinolinesulfonamide] stands 42 µM; under `O=S(=O)(NCCCN1CCOCC1)c1cccc2cnccc12` [Compound (21), N-(3-morpholinopropyl)-5-isoquinolinesulfonamide], 50 µM.
Under `CN(CCCNS(=O)(=O)c1cccc2cnccc12)C1CCCCC1` [Compound (22), N-[3-(N-methyl-N-cyclohexylamino)propyl]-5-isoquinolinesulfonamide] stands 42 µM; under `CN(CCCNS(=O)(=O)c1cccc2cnccc12)c1ccccc1` [Compound (23), N-[3-(N-methyl-N-phenylamino)propyl]-5-isoquinolinesulfonamide], 4 µM; under `CN(CCCNS(=O)(=O)c1cccc2cnccc12)Cc1ccccc1` [Compound (24), N-[3-(N-methyl-N-benzylamino)propyl]-5-isoquinolinesulfonamide], 17 µM.
